Results from patent US10344330B2, “Glatiramer acetate response biomarker mRNA potency assay” (Mylan Inc., priority 2013, dated 2019).
Several values for one entry are separate records, joined by “and”; a condition that tells them apart may be missing. Equal entries are not always repeated.

B1: MBP: myelin basic protein, a negative control (protein, UniProt P02686 1-304, looked up)
Myelin basic protein: MGNHAGKRELNAEKASTNSETNRGESEKKRNLGELSRTTSEDNEVFGEADANQNNGTSSQDTAVTDSKRTADPKNAWQDAHPADPGSRPHLIRLFSRDAPGREDNTFKDRPSESDELQTIQEDSAATSESLDVMASQKRPSQRHGSKYLATASTMDHARHGFLPRHRDTGILDSIGRFFGGDRGAPKRGSGKDSHHPARTAHYGSLPQKSHGRTQDENPVVHFFKNIVTPRTPPPSQGKGRGLSLSRFSWGAEGQRPGFGYGGRASDYKSAHKGFKGVDAQGTLSKIFKLGGRDSRSGSPMARR

Tests used:
[1] = system: mIL-2 mRNA in primary LN cells; assay: mIL-2 mRNA by real-time PCR in ex vivo stimulated LN cells of immunized (SJL/J×BALB/C)F1 mice (Example I); type: cell-based, mouse
Experimental: For each of the three experiments summarized in Table 1, female (SJL/J×BALB/C) F1 hybrid (Jackson Laboratory) mice were immunized by footpad injection with either 250 μg GMA (Mylan Pharmaceuticals, Inc.) and CFA (Sigma Aldrich), or Mannitol and CFA (as a negative control). The GA solution was diluted to 5 mg/mL with Dulbecco's Phosphate-buffered saline. A dose solution was then prepared by mixing the diluted GA solution (5 mg/mL) and CFA (1:1) until well-emulsified. Each mouse received a total injection volume of 0.1 mL (250 μg GA). Animals were immunized on Day 0. Immunized animals were sacrificed via cervical dislocation on Day 10 following immunization. Lymph nodes in the axillary and popliteal regions were removed aseptically in a purifier clean bench, and transferred into a sterile petri dish containing about 5 mL of sterile RPMI 1640 medium. The LN were washed 3 times with −5 mL of RPMI medium, and the LN cells isolated by pressing the LN with a syringe plunger. The cell suspension was transferred to a sterile 50 mL conical tube, washed in about 40 mL of RPMI medium by centrifuging at about 200×g for 10 minutes at about 4° C., and re-suspended in RPMI 1640 medium for cell counting. The cell suspension was centrifuged at about 200×g for 10 minutes at about 4° C. and re-suspended in ice cold enriched DCCM-1 medium. The LN cells (2.5×10^6 cells/cm^2) were plated in the wells of a 48-well tissue culture plate and stimulated with GA or controls.
After incubation at about 37° C. in a humidified CO2 incubator for the indicated time, total RNA was isolated from the treated cells using the RNeasy Mini Kit (Qiagen, Cat. #74104). Cells were lysed in RNA lysis buffer, transferred to Qiagen spin columns, washed, and the RNA eluted with DEPC-treated water from the column. cDNA was synthesized from each RNA sample using the High Capacity cDNA Reverse Transcription Kit (Applied Biosystems, Cat. #4368814). The PCR reactions were carried out using TaqMan Universal PCR Master Mix (Applied Biosystems, Cat. #4304437) and specific primers/probe for the target cytokine and reference internal controls. Primers/probes for mouse cytokines IL-2 (Cat. #4331182; ID Mm00434256_m1), IL-4 (Cat. #4331182; ID Mm00445259_m1), IL-5 (Cat. #4331182; ID Mm00439646_m1), IFN-γ (Cat. #4331182; ID Mm01168134_m1), IL-10 (ID Mm00439614_m1), and TNF-α (Mm00443260_g1) were obtained from Life Technologies. Expression of cytokine mRNA was quantitatively analyzed using a Real-Time PCR system (7500, Applied Biosystems).
(DCCM1 from Beit Haemek Ltd.; Cat. No. 05 010 1A). There was no MBP treatment for the 2-hour groups. (MBP from Bachem; Cat No. H-1964.0001) For each evaluation time DCCM1 was studied and compared, i.e. 2 hours represents 2 hours with DCCM1, 4 hours=4 hours, etc., and served as representative control for each timepoint.
For Experiment 3, a 96-well plate format was used, and RNA isolation was carried out using an SV 96 Total RNA Isolation System (Promega). Immunization of Groups 3A and 4A are described in Table 1. […] Y-axis: linear mRNA fold-changes of mIL-2. X-axis: log Cop and GA (Mylan GMA) concentration values. The best fit for the data set was performed using the logarithmic model.
Group 1B animals were female (SJL/J×BALB/C) F1 hybrid (Jackson Laboratory) mice immunized by footpad injection with either 250 μg GA and CFA, or Mannitol and CFA (as a negative control). A dose solution was prepared by mixing a diluted GA solution (5 mg/mL) and CFA (1:1).

[2] = system: IL-2 secreted by LN cells; assay: IL-2 secretion by GA-stimulated LN cells, MSD 9-plex ELISA (Example II); type: cell-based, mouse; details: for IL-2 secretion response ratio (treated cell medium to control DCCM1 medium): 21 hr
[3] = Experiment 1, GA-immunized (SJL/J×BALB/C)F1, 2 hour post stimulation, GA 10, ConA 2.5 μg/mL
[4] = Experiment 1, GA-immunized (SJL/J×BALB/C)F1, 4 hour post stimulation, GA 10, MBP 10, ConA 2.5 μg/mL
[5] = Experiment 1, GA-immunized (SJL/J×BALB/C)F1, 6 hour post stimulation, GA 10, MBP 10, ConA 2.5 μg/mL
[6] = Experiment 1, GA-immunized (SJL/J×BALB/C)F1, 24 hour post stimulation, GA 10, MBP 10, ConA 2.5 μg/mL
[7] = Experiment 3, Group 3A (GA + CFA), stimulation 2.5 μg/mL, 6 hours
[8] = Experiment 3, Group 3A (GA + CFA), stimulation 10 μg/mL, 6 hours
[9] = Group 1B (GA + CFA), 4 hours post-stimulation, GA 10, MBP 10, ConA 2.5 μg/mL, reference 18S rRNA
[10] = Group 1B (GA + CFA), 6 hours post-stimulation, GA 10, MBP 10, ConA 2.5 μg/mL, reference 18S rRNA
[11] = Group 2B (Mannitol + CFA), 4 hours post-stimulation, GA 10, MBP 10, ConA 2.5 μg/mL, reference 18S rRNA
[12] = Group 2B (Mannitol + CFA), 6 hours post-stimulation, GA 10, MBP 10, ConA 2.5 μg/mL, reference 18S rRNA
[13] = Experiment 3, Group 4A controls, *Animals not immunized, MBP 10, ConA 2.5 μg/mL, 6 hours
[14] = BALB/cByJ, immunized GA Lower Limb
[15] = C57BL10J, immunized GA Intraplantar
[16] = C57BL10J, immunized GA Lower Limb

| Molecule | mIL-2 mRNA Level [1, 3] [fold change vs control] | mIL-2 mRNA Level [1, 4] [fold change vs control] | mIL-2 mRNA Level [1, 5] [fold change vs control] | mIL-2 mRNA Level [1, 6] [fold change vs control] | mIL-2 mRNA Level [1, 7] [fold change vs control] | mIL-2 mRNA Level [1, 8] [fold change vs control] | mIL-2 mRNA Level [1, 9] [fold change vs control] | mIL-2 mRNA Level [1, 10] [fold change vs control] | mIL-2 mRNA Level [1, 11] [fold change vs control] | mIL-2 mRNA Level [1, 12] [fold change vs control] | mIL-2 mRNA Level [1, 13] [fold change vs control] | IL-2 secretion response ratio (treated cell medium to control DCCM1 medium) [2, 14] | IL-2 secretion response ratio (treated cell medium to control DCCM1 medium) [2, 15] | IL-2 secretion response ratio (treated cell medium to control DCCM1 medium) [2, 16] | IL-2 secretion response ratio (treated cell medium to control DCCM1 medium) ([2]; CD-1, immunized GA Lower Limb) | also measured |
| --- | --- | --- | --- | --- | --- | --- | --- | --- | --- | --- | --- | --- | --- | --- | --- | --- |
| L-glutamic acid polymer with L-alanine, L-lysine and L-tyrosine, acetate (salt) [GA] | 5.3 | 12.2 | 20.8 | 3.6 | 20.2 | 26.1 | 16.7 | 10.2 | 1.8 | 1.4 |  |  |  |  |  | mIL-2 mRNA Level ([1]; Experiment 3, Group 3A (GA + CFA), stimulation 1 μg/mL, 6 hours): 9.7 fold change vs control; mIL-2 mRNA Level ([1]; Experiment 3, Group 3A (GA + CFA), stimulation 5 μg/mL, 6 hours): 22.6 fold change vs control; mIL-2 mRNA Level ([1]; Experiment 3, Group 3A (GA + CFA), stimulation 15 μg/mL, 6 hours): 27.3 fold change vs control; mIL-2 mRNA Level ([1]; Experiment 3, Group 3A (GA + CFA), stimulation 25 μg/mL, 6 hours): 34.7 fold change vs control; mIL-2 mRNA Level ([1]; Experiment 3, Group 4A (Mannitol + CFA), stimulation 5 μg/mL, 6 hours): 3.0 fold change vs control; mIL-2 mRNA Level ([1]; Experiment 3, Group 4A (Mannitol + CFA), stimulation 10 μg/mL, 6 hours): 1.6 fold change vs control; mIL-2 mRNA Level ([1]; Experiment 3, Group 4A (Mannitol + CFA), stimulation 25 μg/mL, 6 hours): 1.7 fold change vs control and 1.5 fold change vs control; mIL-2 mRNA level increase vs DCCM-1-stimulated control ([1]; Group 1B, 4 and 6 hours (text summary of Table 8)): at least 10 fold; IL-2 secretion, dose response to GA (in words) ([2]; LN cells from each of the three mouse strains): dose-dependent manner |
| Concanavalin A [ConA, reference compound] | 183.4 | 131.5 | 105.0 | 16.2 | 111.0 |  | 256.3 | 54.3 | 517.9 | 277.9 | 91.4 | 283.65 | 40.09 | 31.11 | 19.64 |  |
| B1 |  | 1.0 | 0.3 | 0.6 |  | 0.9 | 0.5 | 0.3 | 0.4 | 0.5 | 1.5 | 1.13 | 1.18 | 1.30 | 1.29 |  |
